Assay results published in ChEMBL document CHEMBL3507680, “University of Dundee, Gates Library screen for HepG2 cell viability”.

Experiment: Human HepG2 cell viability assay in 384 well format
Format: toxicity, cell-based
Set-up: dose 125 nL, time 70.5 hour; cytotoxicity at 70.5 h: concentration not given beside the values
Details: HepG2 cells, read-out: Inhibition

SMILES	cytotoxicity at 70.5 h
COC(=O)[C@@H]1CN(C(=O)c2cscn2)C[C@H]1c1ccc(OC)cc1	-1.39%
CC(=O)N1CCCC1c1cccc(NCc2ccccc2F)n1 (stereo not drawn)	-1.09%
CC(C)Oc1ccc(CN2CCCC(N3CCCC3)C2)cc1CO (stereo not drawn)	2.77%
Cc1nn(C)c(C)c1NC(=O)CN1CCCC1c1noc(C2CC2)n1 (stereo not drawn)	8.6%
CCCn1nc2c(cc1=O)CN(CCCS(N)(=O)=O)CC2	3.74%
Cn1cnnc1S(=O)(=O)Cc1cc(Cl)c2c(c1)OCO2	7.74%
O=C(C1CCCO1)N1CCc2nnc(Cn3cccc3)n2CC1 (stereo not drawn)	-7.61%
O=C(c1c2c(NCC3CC3)ncnc2n2ccccc12)N1CCOCC1	-1.89%
CSc1ncccc1C(=O)N1C[C@H]2CC[C@@H]1CN(C(=O)N(C)C)C2	-7.79%
CCOc1cc([C@H]2N[C@@H](c3nc(C)cs3)Cc3ccsc32)ccc1OC	-6.01%
Cc1cccc(Oc2ccccc2CNC(=O)C2CCC(=O)NC2)c1 (stereo not drawn)	-10.6%
CS(=O)(=O)Nc1ccc(-n2c(CCCO)nc3ccccc32)cn1	0.667%
O=C(c1ccco1)N1CCOCC2(C1)CN(c1ccccc1)C(=O)CO2 (stereo not drawn)	-5.76%
Cn1cc(C(=O)N2CCCC(Cc3nccs3)C2)cn1 (stereo not drawn)	-1.09%
Cc1nc(N2CCCC2)ncc1-c1cc(O)nc(N2CCCCC2)n1	-10.4%
CCN1C(=O)C2(CCOCC2)c2cc(NC(=O)c3cnoc3C)ccc21	-6.08%
Cc1noc(C)c1CS(=O)(=O)C(C)C(=O)N(C)c1ccccc1 (stereo not drawn)	-111%
CCCn1cnnc1CNC(=O)CC1C(=O)NCCN1C(C)C (stereo not drawn)	10.7%
COCCN1CC2(CCN(C(=O)c3ccno3)CC2)c2ccccc21	27.9%
CCC(C(=O)NCCc1ccn(-c2ccccc2)n1)N1CCCC1=O (stereo not drawn)	-5.95%
O=C(NC1CCCC1)c1cc(C2CCCNC2)n[nH]1 (stereo not drawn)	-3.17%
CN(Cc1ccc(Cl)s1)C(=O)CN(C)C1CCCc2ccccc21 (stereo not drawn)	-4.74%
CCNc1nc(N(C)C)nc(-n2cnc(SC)n2)n1	-12%

SMILES	cytotoxicity at 70.5 h
CN1CC[C@H]2OCC[C@@]2(C(=O)NCCc2ccccn2)C1	21.6%
Cc1ccc(C(=O)NC(CN2CCCC2=O)c2ccccc2)c(=O)[nH]1 (stereo not drawn)	17.4%
CN(Cc1ncc(C(C)(C)C)o1)C1CCCN(c2cccnn2)C1 (stereo not drawn)	-11.9%
Cc1ccnn1-c1ccc(C(=O)N2CCCC(n3ccnc3)C2)cc1 (stereo not drawn)	-7.39%
CC(Cn1cncn1)NC(=O)c1cn(Cc2ccccc2F)nn1 (stereo not drawn)	0.213%
O=C(c1ccc(COc2ccccc2Cl)o1)N1N=CCC1(O)C(F)(F)F (stereo not drawn)	-4.75%
O=C(c1ccc(-c2ccc(O)nc2)s1)N1CCCCCC1	-10.4%
CCN1CCn2c(C)cnc2C12CCN(C(=O)NCC(C)C)CC2	-11.3%
c1cnn(CC2CCCCN2Cc2noc(C3CC3)n2)c1 (stereo not drawn)	-6.47%
Cc1oc(-c2ccco2)nc1CNC1CCCN(c2cccnn2)C1 (stereo not drawn)	-9.89%
CCCC(NC(=O)c1cc(C)ccc1C)c1nnn[nH]1 (stereo not drawn)	13.6%
CN(C)C(=O)N1CCN(CCCc2ccccc2)[C@H]2CS(=O)(=O)C[C@H]21	-1.41%
CCOC(=O)COc1ccc(C(C)=O)c(O)c1	28.9%
CN(CCn1nc2ccccn2c1=O)CC(=O)N1CCCC1	4.26%
CC(=O)c1c(F)cccc1NCC(O)c1ccc(F)c(F)c1 (stereo not drawn)	-12.6%
COC(=O)c1sc2nc3c(c(C(F)(F)F)c2c1N)CN(C(C)=O)CC3	5.62%
Cn1cncc1CNC1CC2(CCN(CC3CC3)CC2)c2ccccc21 (stereo not drawn)	-2.23%
CC(SCCNS(=O)(=O)c1cnn(C)c1)c1cccc(F)c1 (stereo not drawn)	-5.51%
CN(C)C(=O)C1(CCCc2ccccn2)CCN1Cc1nccn1C (stereo not drawn)	-6.27%
CC(C#N)CN(C)C(=O)c1cn(-c2ccc(Br)cc2)cn1 (stereo not drawn)	-1.57%
O=C(NCCCN1CCOCC1)c1ccnc(OCc2ccccc2)c1	-1.25%
CCN(CC)C(CNCc1ccc(C)o1)c1ccco1 (stereo not drawn)	-11.7%
O=C(c1ccco1)N1CC[C@H]2[C@H]1CCN2S(=O)(=O)C1CC1	-8.4%

SMILES	cytotoxicity at 70.5 h
COCc1cccc(S(=O)(=O)Nc2ncc(C)s2)c1	-12.2%
CN1CCc2[nH]nc(C(=O)N3CCCC4(CN(C)C(=O)O4)C3)c2C1 (stereo not drawn)	-6.4%
CCC(=O)N1CCCN(Cn2nc(C)c(Br)c2C)CC1	-0.667%
CCN1CCC(CNC(=O)C2(c3ccc(F)cc3)CC2)C1 (stereo not drawn)	52%
O=C(CN1C=Nc2ccccc2S1(=O)=O)NCC1CC1	-7.99%
O=C(NCC1CC1)C1=NOC2(CCN(S(=O)(=O)c3ccc(F)cc3)C2)C1 (stereo not drawn)	-0.024%
CC(C)(C)n1ncc2c1CCCC2NCc1cccc(C(N)=O)c1 (stereo not drawn)	3.6%
CCC(Oc1ccccc1)c1nn2c(CN(CC)CC)nnc2s1 (stereo not drawn)	-7.01%
CCN1C[C@H]2CCN(Cc3ccncc3)C(=O)[C@@H]2C1	-12%
O=C(CN1CCc2ccccc2C1)NCc1cc2n(n1)CCCNC2	-6.65%
CCc1cccc(CC)c1NC(=O)c1ccccc1N(C)S(C)(=O)=O	-8.14%
Fc1ccc(C2CCCCN2Cc2cc(-c3ccccn3)no2)cc1 (stereo not drawn)	17.8%
c1cnnc(N2CCCC2CNCc2cnc(N3CCCC3)nc2)c1 (stereo not drawn)	-7.83%
Cc1ccc(NCc2ccccc2C#N)cc1-n1cnnn1	0.552%
CC(=O)N1CC(C)CN(C(=O)c2cccnc2C)c2ccccc21 (stereo not drawn)	-7.8%
COCCN1CCCc2sc(C(=O)N3CCCN(C)CC3)nc21	11.7%
CN1CC2(COCCN(C(=O)c3ccco3)C2)OCC1=O (stereo not drawn)	6.17%
Cc1nc2n(n1)CC(NCc1nc(C)c(C)o1)CC2 (stereo not drawn)	-0.801%
CNS(=O)(=O)c1ccc(C(=O)Nc2ccc3c(c2)C(=O)NC3)cc1	1.61%
CN(CC(O)C1CC1)C(=O)Nc1ccc(F)c(-n2cccc2)c1 (stereo not drawn)	-2.43%
c1cn(CCc2c[nH]cn2)c(-c2cc(CN3CCCC3)cs2)n1	-9.06%
C[C@@H]1CN(C(=O)c2cnc(C3CC3)nc2)CC[C@@]1(O)C1CCOCC1	-8.12%
Cc1cnn(CC2CCCCN2C(=O)c2sccc2C#N)c1 (stereo not drawn)	-4.1%

SMILES	cytotoxicity at 70.5 h
CCC(NC(=O)c1cc(NC(C)=O)ccc1Cl)c1cc(C)ccn1 (stereo not drawn)	9.03%
CS(=O)(=O)N1CCC2(CC1)NCCn1c(-c3ccccc3)cnc12	-7.68%
CN(C)C(=O)N1CCN(Cc2nnc(C(C)(C)C)o2)CC1	-4.6%
CCOc1cc(C(=O)n2cccn2)cc(OCC)c1OCC	-6.27%
CCOCCN1CCN(CC(O)c2cc(Cl)ccc2Cl)CC1 (stereo not drawn)	-5.82%
Cc1ncsc1-c1nnc(C2CCCN2C(=O)Cn2cccn2)o1 (stereo not drawn)	3.13%
Cc1nccc(CN2Cc3nccn3CC2c2ccccc2)n1 (stereo not drawn)	-4.01%
COc1ccc2nc(C[C@@H]3C[C@@H](C(C)C)[C@H](CN)C=C3C)[nH]c2n1	-4.84%
CCc1nnc(Nc2cccc(C3CCN(C)CC3)n2)s1	35%
CCN(CC)Cc1nc(Cc2cccc(C(F)(F)F)c2)no1	-7.89%
O=C(Nc1ccc2c(c1)OCCO2)N1CCCN(Cc2cccs2)CC1	0.682%
CCOC(=O)C1CCN(C(=O)Cc2c(C)nc(C)[nH]c2=O)CC1	12.3%
CCc1ncnc2c1CCN(S(=O)(=O)c1ccccc1)CC2	3.38%
CCc1nnc(C2Cc3ccccc3CN2Cc2nc(C3CC3)no2)o1 (stereo not drawn)	-5.61%
CN(C)CC(=O)N1Cc2cc(-c3cc[nH]n3)ccc2C1c1cnco1 (stereo not drawn)	-1.64%
CCOc1nnc(CN(CC)CC(=O)Nc2c(F)cccc2F)s1	-5.55%
Cc1ccc(C(=O)NC2CCCN(S(C)(=O)=O)C2)c(=O)[nH]1 (stereo not drawn)	-2.62%
COc1ccc(S(=O)(=O)NCCC(O)c2cc(C)oc2C)c(C)c1 (stereo not drawn)	-5.42%
Cn1ccnc1CN1CCCN(C(=O)CC(C2CC2)C2CC2)CC1	0.914%
Cc1nonc1OCCNc1ncnc2sc3c(c12)CCNC3	-3.76%
Cc1cnn(CC2CCCN2C(=O)c2n[nH]c3ccccc23)c1 (stereo not drawn)	-6.9%
COc1ccc(-c2nc(CC(=O)N(C)CCC#N)cs2)cc1OC	5.07%
Cc1ccc(CN2CC3(CCN(S(=O)(=O)c4ccccc4)C3)C2)o1	24.3%

SMILES	cytotoxicity at 70.5 h
CN(C)CC1CN(CC(=O)N2CCc3ccccc32)CCO1 (stereo not drawn)	11.8%
COc1ccc(OC)c(C(=O)N2C[C@H]3CC[C@@H]2CN(C)C3)c1	20.2%
Cc1ccc(N2CCCC(NCc3ccccn3)C2)nn1 (stereo not drawn)	25.6%
CCN1C[C@H]2CCN(c3ncccn3)CC[C@H]2S1(=O)=O	1.89%
Cc1nnc2ccc(C(=O)N3CCSC(C)(C)C3)cn12	11.4%
O=C1CC2(CCN(CCO)CC2)CN1Cc1cc(F)cc(F)c1	-7.72%
Cc1csc(CNC(=O)N(C)Cc2ccc([S+](C)[O-])cc2)n1 (stereo not drawn)	-5.11%
COc1ccccc1CCNC(=O)CN1CCCC1c1noc(C)n1 (stereo not drawn)	-3.07%
Cn1ccc(C(=O)N2CCCN(CCCc3ccccc3)CC2)cc1=O	-17.2%
COc1cc2nc(C)n(CC(=O)O)c(=O)c2cc1OC	-8.36%
Cc1ccc(OCc2nc(CNCCn3cccn3)cs2)cc1	-2.86%
CN(C)S(=O)(=O)N1CCC2(CC1)CC(OCC1CC1)CO2 (stereo not drawn)	-4.38%
Cc1cc(N(Cc2ccccc2F)C2CC2)n2nc(C(F)(F)F)nc2n1	-1.77%
CCn1nc2c(cc1=O)CN(Cc1cc(C)on1)CC2	-3.67%
CC(C)(C)Oc1ccncc1NCc1cscn1	-3.05%
CCn1nc(C)c(S(=O)(=O)N(C)c2ccc(Cl)cn2)c1C	12%
CCOCC1CN(C(=O)Cc2ccccn2)Cc2cn(C)nc21 (stereo not drawn)	-10.7%
O=C(c1ccncc1)N1Cc2ccccc2OC2(CCOCC2)C1	-18.2%
CC(C)(C)c1nc(CN2CCCC(c3noc(C4CC4)n3)C2)no1 (stereo not drawn)	-4.22%
CN(C)C(=O)c1cnc2n1CCN(Cc1ccccc1)C2	-15.3%
CN(C(=O)Cc1coc(-c2cccs2)n1)C1(C#N)CCC1	-6.29%
